Entries after “also recorded” stand apart in the source; their conditions may differ.

For series [1] the following is noted: cited from earlier work.
Series [2] in a line: dissolution of mirtazapine before and after micronization. Format: physicochemical. To be noted: compared to mirtazapine prior to micronization. The text has this:
FIG. 1 is a graph of the dissolution data of mirtazapine before and after micronization. FIG. 2 is a graph of the percent of dissolved mirtazapine before and after micronization. FIG. 3 is a graph of showing the dissolution time and standard deviations of the dissolution results before and after micronization. […] This is valuable improvement provides for more accurate dosing of mirtazapine.

As to `CN1CCN2c3ncccc3Cc3ccccc3C2C1` (centres unmarked) [Mirtazapine, 1,2,3,4,10,14b-hexahydro-2-methyl-pyrazino [2,1-a]pyrido[2,3-c][2] benzazepine], the solubility in water entry in series [1] is recorded as “essentially insoluble in water”.
As for `CN1CCN2c3ncccc3Cc3ccccc3C2C1` (centres unmarked) [micronized mirtazapine], the dissolution profile result in series [2] is “superior dissolution profile; also recorded: more stable and reproducible dissolution profile”.

These data come from US20020072602A1, “Micronized mirtazapine” (priority 2000, published 2002).
